Measurements published in patent US20250289785A1, “INDOLE DERIVATIVE, METHOD FOR PREPARING SAME, AND USE THEREOF” (MITOIMMUNE THERAPEUTICS INC., priority 2021, published 2025).

Key:
[1] = tested on: H9C2 cells; test: Cell death protective effect in cardiac myocytes against Erastin, glutamate and RSL3 (LDH); assay type: cell-based, white mouse; settings: 24 h
Experimental: (§1) In order to identify the protective effect on cardiac cells, H9C2 cells were divided into 96-well plates by 1×10^4 and cultured for 18 to 24 hours. The compounds of Examples were diluted to final concentrations of 0.1 and 1.0 μM, treated in each well, and incubated for 15 to 20 minutes. Erastin, glutamate, and RSL3 were treated to have final concentrations of 1 μM, 25 mM, and 0.5 μM, respectively, and cultured for 24 hours. In order to identify the protective effect of each compound, the degree of LDH extracellular secretion was measured using cytotoxicity LDH assay kit [Dojindo; CK12]. Briefly, at the time when the treatment of the cells with Erastin, glutamate, and RSL3 for 24 hours is completed, the supernatants containing the cells are taken by 70 μL and transferred to a new 96-well plate. The assay buffer included in the kit is added in an amount of 70 μL/well (the same amount as the sample) thereto, and then the plate is wrapped with a foil and the reaction is performed at room temperature for 15 minutes.

[2] = tested on: NIH/3T3 cells; test: Cell death protective effect in fibroblasts against Erastin, glutamate and RSL3 (LDH); assay type: cell-based, mouse; settings: 24 h
Experimental: as §1, with “on fibroblasts, NIH/3T3” for “on cardiac cells, H9C2”, “by 8×10^3” for “by 1×10^4”, “and 1” for “and 1.0”, “of 3” for “of 1”, “μM, 30” for “μM, 25”, “and 3” for “and 0.5”

[3] = tested on: NRK-49F cells; test: Cell death protective effect in renal fibroblasts against Erastin, glutamate and RSL3 (LDH); assay type: cell-based, rat; settings: 24 h
Experimental: as §1, with “on renal fibroblasts, NRK-49F” for “on cardiac cells, H9C2”, “and 1.” for “and 1.0”, “of 3” for “of 1”, “μM, 75” for “μM, 25”, “and 3” for “and 0.5”

[4] = tested on: MLE-12 cells; test: Cell death protective effect in lung epithelial cells against RSL3 (LDH); assay type: cell-based, rat; settings: MLE-12, RSL3, 1 μM, 24 h
Experimental: In order to identify the protective effect on lung epithelial cells, MLE-12 cells were divided into 96-well plates by 5×10^3 and cultured for 18 to 24 hours. The compounds of Examples were diluted to final concentrations of 0.03 and 0. μM, treated in each well, and incubated for 20 minutes. RSL3 was treated to have final concentrations of 1. μM, respectively, and cultured for 24 hours. In order to identify the protective effect of each compound, the degree of LDH extracellular secretion was measured using cytotoxicity LDH assay kit [Dojindo; CK12]. Briefly, at the time when the treatment of the cells with RSL3 for 24 hours is completed, the supernatants containing the cells are taken by 70 μL and transferred to a new 96-well plate. The assay buffer included in the kit is added in an amount of 70 μL/well (the same amount as the sample) thereto, and then the plate is wrapped with a foil and the reaction is performed at room temperature for 15 minutes.

[5] = tested on: ARPE-19 cells; test: Cell death protective effect in retinal epithelial cells against Erastin and RSL3 (LDH); assay type: cell-based, human; settings: 24 h
Experimental: In order to identify the protective effect on retinal epithelial cells, ARPE-19 cells were divided into 96-well plates by 1×10^4 and cultured for 18 to 24 hours. The compounds of Examples were diluted to final concentrations of 0.03 and 0.3 μM, treated in each well, and incubated for 20 minutes. Erastin, and RSL3 were treated to have final concentrations of 10 μM, and 0.3 μM, respectively, and cultured for 24 hours. In order to identify the protective effect of each compound, the degree of LDH extracellular secretion was measured using cytotoxicity LDH assay kit [Dojindo; CK12]. Briefly, at the time when the treatment of the cells with Erastin, and RSL3 for 24 hours is completed, the supernatants containing the cells are taken by 70 μL and transferred to a new 96-well plate. The assay buffer included in the kit is added in an amount of 70 μL/well (the same amount as the sample) thereto, and then the plate is wrapped with a foil and the reaction is performed at room temperature for 15 minutes.

[6] = H9C2, Erastin, 1 μM, compound 0.1 μM
[7] = H9C2, Erastin, 1 μM, compound 1.0 μM
[8] = H9C2, Glutamate, 25 mM, compound 0.1 μM
[9] = H9C2, Glutamate, 25 mM, compound 1.0 μM
[10] = H9C2, RSL3, 0.5 μM, compound 0.1 μM
[11] = H9C2, RSL3, 0.5 μM, compound 1.0 μM
[12] = NIH/3T3, Erastin, 3 μM, compound 0.1 μM
[13] = NIH/3T3, Erastin, 3 μM, compound 1.0 μM
[14] = NIH/3T3, Glutamate, 30 mM, compound 0.1 μM
[15] = NIH/3T3, Glutamate, 30 mM, compound 1.0 μM
[16] = NIH/3T3, RSL3, 3 μM, compound 0.1 μM
[17] = NIH/3T3, RSL3, 3 μM, compound 1.0 μM
[18] = Glutamate, 75 mM, compound 0.1 μM
[19] = Glutamate, 75 mM, compound 1.0 μM
[20] = ARPE-19, Erastin, 10 μM, compound 0.03 μM
[21] = ARPE-19, Erastin, 10 μM, compound 0.3 μM
[22] = ARPE-19, RSL3, 0.3 μM, compound 0.03 μM (first RSL3 column)
[23] = ARPE-19, RSL3, 0.3 μM, compound 0.03 μM (second RSL3 column)

## CCOCc1cc(NC2CCOCC2)c2[nH]c(-c3ccccc3)c(-c3ncc[nH]3)c2c1 [Example 46, 5-(ethoxymethyl)-3-(1H-imidazol-2-yl)-2-phenyl-N-(tetrahydro-2H-pyran-4-yl)-1H-indole-7-amine]
[1]; [6]
  inhibition (%): 4%
[1]; [7]
  inhibition (%): 100%
[1]; [8]
  inhibition (%): 4%
[1]; [9]
  inhibition (%): 94%
[1]; [10]
  inhibition (%): 15%
[1]; [11]
  inhibition (%): 9%
[2]; [12]
  inhibition (%): 102%
[2]; [13]
  inhibition (%): 99%
[2]; [14]
  inhibition (%): 0%
[2]; [15]
  inhibition (%): 96%
[2]; [16]
  inhibition (%): 0%
[2]; [17]
  inhibition (%): 100%
[3]; Erastin, 3 μM, compound 0.1 μM
  inhibition (%): 5%
[3]; Erastin, 3 μM, compound 1.0 μM
  inhibition (%): 64%
[3]; [18]
  inhibition (%): 13%
[3]; [19]
  inhibition (%): 16%
[3]; RSL3, 3 μM, compound 0.1 μM
  inhibition (%): 0%
[3]; RSL3, 3 μM, compound 1.0 μM
  inhibition (%): 5%
[4]; compound 0.03 μM
  inhibition (%): 0%
[4]; compound 0.3 μM
  inhibition (%): 7%
[5]; [20]
  inhibition (%): 3%
[5]; [21]
  inhibition (%): 64%
[5]; [22]
  inhibition (%): 5%
[5]; [23]
  inhibition (%): 43%

## CCOCc1cc(NC2CCOCC2)c2c(c1)c(COC)c(-c1ccccc1)n2C [Example 29, 5-(ethoxymethyl)-3-(methoxymethyl)-1-methyl-2-phenyl-N-(tetrahydro-2H-pyran-4-yl)-1H-indol-7-amine]
[1]; [6]
  inhibition (%): 1%
[1]; [7]
  inhibition (%): 100%
[1]; [8]
  inhibition (%): 6%
[1]; [9]
  inhibition (%): 95%
[1]; [10]
  inhibition (%): 10%
[1]; [11]
  inhibition (%): 100%
[2]; [12]
  inhibition (%): 0%
[2]; [13]
  inhibition (%): 99%
[2]; [14]
  inhibition (%): 98%
[2]; [15]
  inhibition (%): 97%
[2]; [16]
  inhibition (%): 100%
[2]; [17]
  inhibition (%): 100%
[3]; Erastin, 3 μM, compound 0.1 μM
  inhibition (%): 3%
[3]; Erastin, 3 μM, compound 1.0 μM
  inhibition (%): 93%
[3]; [18]
  inhibition (%): 17%
[3]; [19]
  inhibition (%): 100%
[3]; RSL3, 3 μM, compound 0.1 μM
  inhibition (%): 0%
[3]; RSL3, 3 μM, compound 1.0 μM
  inhibition (%): 96%
[4]; compound 0.03 μM
  inhibition (%): 0%
[4]; compound 0.3 μM
  inhibition (%): 95%
[5]; [20]
  inhibition (%): 22%
[5]; [21]
  inhibition (%): 100%
[5]; [22]
  inhibition (%): 18%
[5]; [23]
  inhibition (%): 100%
